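Following 48 hours of exposure in 96-well plates, responses at five concentrations were used to interpolate endpoints linearly. TGI denotes the concentration required for complete inhibition of growth.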 Where a SMILES comes first, the peptide text is derived from it. [ ]: non-standard residue; d: D form. The star is where a group is joined. ξ: configuration not given here. Propanoyl(3-(4-MeO-Ph)) = COc1ccc(CCC(=O)*)cc1; Thr(3ξ) = CC(O)[C@H](N)C(=O)O; dNMeL = CN[C@H](CC(C)C)C(=O)O; OBn = c1ccc(CO*)cc1; ξLac = CC(O)C(=O)O
What was measured:
Test in all cases: growth of human tumour cells (NCI), 48 h
BT-549 breast = tested on: BT-549 breast
COLO 205 colon = tested on: COLO 205 colon
EKVX NSCLC = tested on: EKVX NSCLC
HCT-116 colon = tested on: HCT-116 colon
HCT-15 colon = tested on: HCT-15 colon
MCF7 breast = tested on: MCF7 breast
NCI/ADR-RES ovarian = tested on: NCI/ADR-RES ovarian
SF-268 CNS = tested on: SF-268 CNS
SN12C renal = tested on: SN12C renal
SNB-75 CNS = tested on: SNB-75 CNS

| SMILES | TGI (BT-549 breast) [µM] | TGI (COLO 205 colon) [µM] | TGI (EKVX NSCLC) [µM] | TGI (HCT-116 colon) [µM] | TGI (HCT-15 colon) [µM] | TGI (MCF7 breast) [µM] | TGI (NCI/ADR-RES ovarian) [µM] | TGI (SF-268 CNS) [µM] | TGI (SN12C renal) [µM] | TGI (SNB-75 CNS) [µM] |
| --- | --- | --- | --- | --- | --- | --- | --- | --- | --- | --- |
| COc1ccc(CCC(=O)OC(C)[C@H](NC(=O)[C@@H](CC(C)C)N(C)C(=O)[C@@H]2CCCN2C(=O)C(C)O)C(=O)OCc2ccccc2)cc1 (stereo not given in full) (H-[ξLac]P[dNMeL][Thr(3ξ)](Propanoyl(3-(4-MeO-Ph)))-OBn) | > 100 | 39 | > 100 | > 100 | > 100 | > 100 | > 100 | 99.5 | > 100 | 45.7 |
| Cc1ccc(/C=N/Nc2nncc3ccccc23)s1 | > 100 | > 100 | > 100 | > 100 | > 100 | > 100 | > 100 | > 100 | > 100 | > 75.9 |
| CC(=O)O[C@H]1CC[C@@]2(C)C(=CC[C@@H]3[C@@H]2CC[C@]2(C)c4c(cc(C#N)c(=N)n4C(C)=O)C[C@@H]32)C1 | 34.8 | 35.7 | 43.2 | 28.5 | 29.4 | 47.2 | 39.6 | 62.7 | 44.8 | 44.9 |
| O=c1[nH]c2ccc(CC(=S)N3CCN(c4ccccc4)CC3)cc2o1 | > 100 | > 100 | > 100 | > 100 | > 100 | > 100 | > 100 | > 100 | > 100 | > 94.7 |
| Cc1ccc(/C=N/NC2=NCCN2)s1 | > 100 | > 100 | > 100 | > 100 | > 100 | > 100 | > 100 | > 100 | > 100 | > 100 |
| COc1ccc(C2SCC(=O)N2NC(=O)C(C)Oc2ccccc2Cl)cc1 (stereo not given) | > 100 | 64.4 | > 100 | > 100 | > 100 | > 100 | > 100 | > 100 | > 100 | > 100 |
| O=C(O)c1cc(O)c2c(c1)Cc1cccc(O)c1C2=O | > 100 | 57.4 | 80 | 67.1 | 33 | > 100 | 93.9 | 56.6 | 33.9 | 30.6 |
| COc1cc2c(cc1OC)C(Cc1ccccc1CCCl)=NCC2 | > 100 | > 100 | > 100 | > 100 | > 100 | > 100 | > 100 | > 100 | > 100 | > 100 |
| Clc1ccc2c(NCCNc3ccnc4cc(Cl)ccc34)ccnc2c1 | 36.8 | 30.1 | 41.4 | 33.1 | 31 | 36 | > 100 | 70.6 | 33.4 | 50.3 |
| CN[C@@H](C)[C@H](OP(=O)(O)OC1[C@@H](O)[C@H](O)C(O)[C@H](O)[C@@H]1O)c1ccccc1 (stereo not given in full) | > 100 | > 100 | > 100 | > 100 | > 100 | > 100 | > 100 | > 100 | > 100 | > 100 |
